Legend:
[1] = target: recombinant DYRK1A kinase (Homo sapiens, UniProt Q13627); experiment: DYRK1A kinase assay (Ser/Thr 18 peptide Z-lyte FRET); format: biochemical; settings: DYRK1A kinase activity; 15 μM ATP, 4 μM Ser/Thr peptide 18, one hour at room temperature
In short: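 Recombinant DYRK1A at 0.25 μg/mL was incubated 1 h at room temperature with 15 μM ATP, 4 μM Ser/Thr 18 peptide and compound, in duplicate, 11-point series from 10 μM. Phosphorylation was read by Z-lyte FRET after 1 h protease development, as the coumarin/fluorescein emission ratio converted to % phosphorylation. IC50 by non-linear regression.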

[2] = system: Tau phosphorylation at Thr212 (pThr212); experiment: Tau phosphorylation assay, phosphoTau (Thr212) AlphaLISA in HEK293T cells transfected with DYRK1A and MAPT; format: cell-based; settings: HEK-293T; HEK293T cells transfected with human DYRK1A and MAPT; compound treatment 18-24 hours; read-out: pTau (Thr212) EC50
Procedure: Representative compounds were screened using the assay procedure for tau phosphorylation activity described below.
HEK293T cells (ATCC, CRL3216) cultured in DMEM (Thermo Fisher Scientific, 10566024) supplemented with 10% FBS (Corning, 35-011-CV) and Penicillin/Streptomycin (Thermo Fisher Scientific, 15140163) were seeded in a 75 cm^2 flask at 8.1×10^6 cells/flask. The HEK293T cells were then transiently transfected with 5 μg DYRK1A (NM_001396) human untagged clone (OriGene, SC314641) and 2.5 μg MAPT (441 a.a. Tau gene) (NM_005910) human untagged clone (OriGene, TP313312) using Lipofectamine 3000 (Thermo Fisher Scientific, L30000015) and incubated for 20-30 hours in a humidified incubator at 37° C. and 5% CO2. Post-incubation, HEK293T cells transfected with the DYRK1A and MAPT expression vectors were harvested and seeded in BioCoat poly-D lysine coated 96-well plates (Corning, 354461) at 3×10^4 cells/well.
The above synthesized compounds were screened using the cell assay procedure to assess decreased Tau phosphorylation at Thr212 (pThr212) described below.
Each compound was dissolved in DMSO (Sigma-Aldrich, D8418-100 mL) as a 10 mM stock. 10 mM stocks were serially diluted 1:3, 10-point dose-response curve and added to the cells with a final concentration ranging from 20 μM to 1.1 nM. Cell were treated with compounds in duplicate and incubated for 18-24 hours in a humidified incubator at 37° C. and 5% CO2.
Following the overnight compound treatment, cells were lysed with 1× Alpha Surefire Ultra Lysis Buffer (Perkin Elmer, ALSU-LB-100ML) complemented with 1× Halt Phosphatase Inhibitor Cocktail (Thermo Fisher Scientific, 78427) and 1× Halt Protease Inhibitor Cocktail (Thermo Fisher Scientific, 78438). Lysates were spun down at 12,000 g for 10 min to remove any cellular debris and 5 μL of lysates were dispensed into a 384-well Opti-Plate (Perkin Elmer, 6007290) for the measurement of Tau phosphorylation in the phosphoTau (Thr212) AlphaLISA assay. Donor antibody, biotinylated HT7Tau (Thermo Fisher Scientific, MN1000B), and acceptor antibody, pThr212Tau (Thermo Fisher Scientific, 44740G) were both added to the cell lysates at a final concentration of 3 nM and incubated for 1 hour at room temperature. Following incubation of the lysates with the donor and acceptor antibodies, anti-rabbit IgG(Fc specific) AlphaLISA acceptor beads (Perkin Elmer, AL104C) were added at a 10 ug/mL final concentration and incubated for 1 hour at room temperature protected from light. Lastly, AlphaScreen streptavidin donor beads (PerkinElmer, 6760002) were added at 40 ug/mL final concentration and incubated for 1 hour at room temperature protected from light. Plates were read at Ex=[…], and Em=615 nm on the EnVision Multilabel Plate Reader (Perkin Elmer) phospho-Tau (Thr212) AlphaLISA signal was used to plot, draw the curve fitting, and determine each compound's EC50 in Prism (GraphPad).

Compound | EC50 [1] [µM] | EC50 [2] [µM]
c1cn2cc(-c3c[nH]c4nc(C5CC5)ccc34)ccc2n1 [Compound 1498, 6-(6-Cyclopropyl-1H-pyrrolo[2,3-b]pyridin-3-yl)imidazo[1,2-a] pyridine] | 0.047 | 0.441
c1cn2nc(-c3c[nH]c4nc(C5CC5)ccc34)ccc2n1 [Compound 1508, 6-(6-Cyclopropyl-1H-pyrrolo[2,3-b]pyridin-3-yl)imidazo[1,2-b] pyridazine] | 0.029 | 0.321
C[C@@H](NC(=O)c1cnn2ccc(-c3c[nH]c4nc(C5CC5)ccc34)cc12)C(F)(F)F [Compound 1513, (R)-5-(6-Cyclopropyl-1H-pyrrolo[2,3-b]pyridin-3-yl)-N-(1,1,1-trifluoropropan-2-yl)pyrazolo[1,5-a]pyridine-3-carboxamide] | 0.091 | 0.374
O=C1NCc2cc(-c3c[nH]c4nc(C5CC5)ccc34)ccc21 [Compound 1522, 5-(6-Cyclopropyl-1H-pyrrolo[2,3-b]pyridin-3-yl)isoindolin-1-one] | 0.012 | 0.025
O=C1NCCc2cc(-c3c[nH]c4nc(C5CC5)ccc34)ccc21 [Compound 1526, 6-(6-Cyclopropyl-1H-pyrrolo[2,3-b]pyridin-3-yl)-3,4-dihydroisoquinolin-1(2H)-one] | 0.01 | 0.073
O=C1NCCOc2cc(-c3c[nH]c4nc(C5CC5)ccc34)ccc21 [Compound 1529, 8-(6-Cyclopropyl-1H-pyrrolo[2,3-b]pyridin-3-yl)-3,4-dihydrobenzo[f][1,4] oxazepin-5(2H)-one] | 0.028 | 0.413
c1cnc2ccc(-c3c[nH]c4nc(C5CC5)ccc34)cc2c1 [Compound 1530, 6-(6-Cyclopropyl-1H-pyrrolo[2,3-b]pyridin-3-yl)quinoline] | 0.024 | 0.393
FC(F)Oc1ccc2c(-c3ccc4nccn4c3)c[nH]c2n1 [Compound 1708, 6-(6-(Difluoromethoxy)-1H-pyrrolo[2,3-b]pyridin-3-yl)imidazo[1,2-a] pyridine] | 0.018 | 0.54
CCOc1ccc2c(-c3ccc4ncccc4c3)c[nH]c2n1 [Compound 1782, 6-(6-Ethoxy-1H-pyrrolo[2,3-b]pyridin-3-yl)quinoline] | 0.015 | 0.305
CN1CCN(C(=O)c2cnn3ccc(-c4c[nH]c5ncc(C#N)cc45)cc23)CC1 [Compound 2046, 3-(3-(4-Methylpiperazine-1-carbonyl)pyrazolo[1,5-a]pyridin-5-yl)-1H-pyrrolo[2,3-b]pyridine-5-carbonitrile] | 0.047 | 0.622
O=C(Nc1ccncc1)c1ccc2c(-c3ccc4ncccc4c3)c[nH]c2n1 [Compound 2054, N-(Pyridin-4-yl)-3-(quinolin-6-yl)-1H-pyrrolo[2,3-b]pyridine-6-carboxamide] | 0.051 | 6.25

Stronger by EC50 [1], values ahead:

EC50 [1] [µM] | EC50 [2] [µM] | Compound
0.009 | 0.21 | CCOc1ccc2c(-c3ccc4nccn4c3)c[nH]c2n1 [Compound 1750, 6-(6-Ethoxy-1H-pyrrolo[2,3-b]pyridin-3-yl)imidazo[1,2-a]pyridine]
0.007 | 0.008 | CN1CCC(NC(=O)c2cnn3ccc(-c4c[nH]c5nc(-c6ccccc6)ccc45)cc23)CC1 [Compound 2018, N-(1-Methylpiperidin-4-yl)-5-(6-phenyl-1H-pyrrolo[2,3-b]pyridin-3-yl)pyrazolo[1,5-a]pyridine-3-carboxamide]
0.006 | 0.199 | CN1CCC(NC(=O)c2cnn3ccc(-c4c[nH]c5nc(CC6CCC6)ccc45)cc23)CC1 [Compound 1640, 5-(6-(Cyclobutylmethyl)-1H-pyrrolo[2,3-b]pyridin-3-yl)-N-(1-methylpiperidin-4-yl)pyrazolo[1,5-a]pyridine-3-carboxamide]
0.005 | 0.936 | Cc1nc2c(F)cc(-c3c[nH]c4nc(C5CC5)ccc34)cc2n1C1CCN(C)CC1 [Compound 1502, 6-(6-cyclopropyl-1H-pyrrolo[2,3-b]pyridin-3-yl)-4-fluoro-2-methyl-1-(1-methylpiperidin-4-yl)-1H-benzo[d]imidazole]
0.005 | 0.082 | CN1CCC(NC(=O)c2cnn3ccc(-c4c[nH]c5nc(C6CC6)ccc45)cc23)CC1 [Compound 1514, 5-(6-Cyclopropyl-1H-pyrrolo[2,3-b]pyridin-3-yl)-N-(1-methylpiperidin-4-yl)pyrazolo[1,5-a]pyridine-3-carboxamide]
0.004 | 0.132 | CN1CCC(NC(=O)c2cnn3ccc(-c4c[nH]c5nc(C6CCCC6)ccc45)cc23)CC1 [Compound 1598, 5-(6-Cyclopentyl-1H-pyrrolo[2,3-b]pyridin-3-yl)-N-(1-methylpiperidin-4-yl)pyrazolo[1,5-a]pyridine-3-carboxamide]

From patent US20230192686A1, “1H-PYRROLO[2,3-B]PYRIDINES AND PREPARATION AND USES THEREOF” (BioSplice Therapeutics, Inc., priority 2021, published 2023)
